Laboratory results as given in patent US8604048B2, “Pyridocarbazole type compounds and applications thereof” (Centre National de la Recherche Scientifique, priority 2009, dated 2013).

How the values were obtained:
[1] = test system: NCI-H460 cells; assay: Cell growth test (MTT), NCI-H460; type: cell-based; details: Homo sapiens; NCI-H460, MTT test after 48 h; read-out: IC50 (concentration necessary to inhibit 50% of cell growth)
Protocol: (§1) The cell growth tests are carried out in transparent 96-well microplates (Greiner) after having seeded 100 μl/well of a cell solution having 2·10^5 cells/ml to 5·10^5 cells/ml (depending on the cell lines). After incubating for 24 h at 37° C. with 5% CO2, the culture medium is removed and replaced with solutions of the molecule to be tested at various concentrations. The cells are incubated with these molecules for an additional 48 h at 37° C. with 5% CO2. After elimination of the medium, the cells are washed with blank RPMI (Gibco, Invitrogen) then incubated with 3-(4,5-dimethylthiazol-2-yl)-2,5-diphenyltetrazolium bromide or MTT (0.5 mg/ml final concentration) for 4 h at 37° C. with 5% CO2. MTT (Sigma Aldrich) makes it possible to estimate the viability of the cells by measuring the activity of a mitochondrial enzyme. Indeed, in living cells, mitochondrial dehydrogenases are capable of cleaving the tetrazolium ring, thus leading to the formation of formazan crystals that are insoluble in an aqueous medium. These crystals are dissolved with the addition of a solubilizing solution (isopropanol, 10% Triton X100, 0.1 N HCl). After stirring, the absorbance is measured at 570 nm using the FLUOstar OPTIMA microplate reader. […]
(§2) The viability of the cells was evaluated using an MTT test after 48 h of exposure with various concentrations of molecules (from 100 μM to 0.001 μM). […]

[2] = test system: MES-SA cells; assay: Cell growth test (MTT), MES-SA; type: cell-based; details: Homo sapiens, MTT test after 48 h, read-out: IC50 (concentration necessary to inhibit 50% of cell growth)
Protocol: as §1, §2

[3] = test system: HeLa cells; assay: Cell growth test (MTT), HeLa; type: cell-based; details: Homo sapiens, MTT test after 48 h, read-out: IC50 (concentration necessary to inhibit 50% of cell growth)
Protocol: as §1, §2

[4] = test system: MES-SA DX5 cells; assay: Cell growth test (MTT), MES-SA DX5; type: cell-based; details: Homo sapiens; MES-SA DX5 (multi-drug resistant, P-glycoprotein), MTT test after 48 h; read-out: IC50 (concentration necessary to inhibit 50% of cell growth)
Protocol: as §1, §2

[5] = test system: 786-O cells; assay: Cell growth test (MTT), 786-O; type: cell-based; details: Homo sapiens, 786-0, MTT test after 48 h, read-out: IC50 (concentration necessary to inhibit 50% of cell growth)
Protocol: as §1, §2

[6] = test system: purified tubulin; assay: In vitro assembly of purified tubulin; type: biochemical; details: tubulin 1 mg/ml; Compound 1 at 25, 50, 100 μM
Protocol: FIG. 5 compares the effects of the Compound 1 of the invention with the effect of paclitaxel (Taxol®) on the assembly of the tubulin purified in vitro. Purified tubulin (1 mg/ml) is incubated in PEM buffer in the presence of GTP (1 mM), MgCl2 (5 mM), DAPI (10 μM) at 37° C. The effect of Compound 1 of the invention at various concentrations (×25 μM, ⊚ 50 μM and Δ 100 μM) is compared to that of paclitaxel (Taxol®) (▪) and of DMSO ( ? );
In order to know whether Compound 1 of the invention exerts its stabilizing effect via a direct action on tubulin, such as paclitaxel does, or by means an effector, its effect on the in vitro assembly of tubulin in microtubules has been analyzed. The first experiments were carried out on purified tubulin (1 mg/ml).

[7] = test system: actin network of HeLa cells; assay: Stability of the actin network to a depolymerization induced by latrunculin B; type: cell-based, Human; details: HeLa cells, confocal microscope
Protocol: 7. a step of analysis of the effect of the compound to be tested on the actin network, via incubation of HeLa cells with the compound to be tested. […] When the actin network is stabilized, the latrunculin-induced depolymerization of the actin network is limited.
The cells are grown on glass coverslips and incubated as for the tubulin staining. After elimination of the medium, the cells are washed with warm PBS then fixed, by addition of a solution of PBS/3.7% formaldehyde for 30 minutes at 37° C. The cells are washed with PBS then permeabilized with a solution of PBS/0.2% Triton X100 for 15 minutes at room temperature. After another washing with PBS, the cells are incubated with a solution of PBS/1% BSA for 30 minutes at room temperature. The cells are then incubated with phalloidin (0.165 μM final concentration) labelled with Alexa Fluor® 488 (Molecular Probes, Invitrogen) for 20 minutes at room temperature. The cells are washed a final time with PBS then dehydrated with pure ethanol. Finally, the cells are fixed to slides using a Fluorsave™ mounting solution.
8) Test for the Action on the Actin Cytoskeleton: Protocol for Evaluating, in Cells, the Stability of the Actin Network to a Depolymerization Induced by Latrunculin B
3 days before the experiment, glass coverslips are deposited under sterile conditions in 24-well microplates. In each well, HeLa cells (15 000 cells per well) in the exponential growth phase are seeded in 500 μl of RPMI medium.
PBS (phosphate buffered saline, ref. P4417, Sigma), PBS/1% BSA (bovine serum albumin, Ref. A3059, Sigma), aliquots of 15 ml, stored at −20° C.; PBS/0.2% Triton X100 (Ref. T8787, Sigma); PBS/0.01% Tween® 20 (Ref. P9916, Sigma); PBS/0.3% BSA/0.02% NaN3 (Ref. for the NaN3: 6688, Merck), aliquots of 15 ml stored at −20° C. Phalloidin A488, (Ref. A12379, Invitrogen). L4: rabbit anti-detyrosinated-tubulin polyclonal antibody (cf. Fonrose et al., Cancer Res., […], 67:3371-3378). Anti-rabbit antibody coupled to Cyanine 3 (Ref. 111.165.144, Jackson Laboratories). […]

Cc1c2cc[nH]c(=O)c2c(C)c2c1[nH]c1ccc(OCc3ccccc3)cc12 [Compound 3, 9-benzyloxy-5,11-dimethyl-2H,6H-pyrido[4,3-b]carbazol-1-one]
IC50 [1]: 1.52 µM
IC50 [2]: 33.9 µM
IC50 [3]: 3.05 µM
IC50 [4]: 13.9 µM
IC50 [5]: 3.34 µM

CC(=O)O[C@H]1C(=O)[C@@]2(C)[C@H]([C@H](OC(=O)c3ccccc3)[C@]3(O)C[C@H](OC(=O)[C@H](O)[C@@H](NC(=O)c4ccccc4)c4ccccc4)C(C)=C1C3(C)C)[C@]1(OC(C)=O)CO[C@@H]1C[C@@H]2O [paclitaxel, reference compound]
Assembly of purified tubulin in vitro [6]: can induce the assembly of tubulin
Protection of the actin network from depolymerization by latrunculin B [7]: Neither DMSO nor paclitaxel (Taxol®) are able to induce such a protective effect
